Experimental findings from paper PMC5344539, “Nematode neuropeptides as transgenic nematicides” (PLoS Pathogens, 2017) are described below.

Experiment [1] has as its system M. incognita J2s. Nature of the experiment: Chemosensory (chemotaxis) assay of uNLP pre-treated J2s towards tomato root exudate. It counts as in vivo, Meloidogyne incognita. The protocol:
(§1) Predicted uNLPs from both M. incognita and G. pallida were synthesised by EZBiolab and dissolved into pH adjusted ddH2O to make a 5 mM stock which was aliquoted and stored at -20°C. J2s of both M. incognita and G. pallida were incubated for 24 hours in 200 μl of each peptide in a 24 well plate (SPL Lifesciences, South Korea) at a defined concentration.
(§2) A 60 mm Petri dish was divided into two segments, a positive and a negative side, with a 0.5 cm 'dead zone' either side of the centre point. The petri dish was filled with 15 ml of 0.25% w/v agar which was allowed to solidify. 3 ml of 0.25% w/v agar slurry in spring water (pH 7, agitated with a magnetic stirrer for several hours to give a smooth consistency) was added to the petri dish and spread evenly over the surface. Root diffusate (attractant) and water only (control) 0.25% agar plugs were embedded in the agar slurry, either side of the assay arena. Root diffusate was collected from 10 tomato plants, aged 3–6 weeks in 1 litre pots, by pouring 500 ml of ddH20 through the soil three times. Diffusate from each plant was combined, filter sterilised and stored at 4°C for a maximum of 1 month. Root diffusate agar plugs were made by melting 1.25% agar in ddH20, cooling to 50°C before mixing with 4 parts of root diffusate. The agar was then allowed to solidify at room temperature. 100 uNLP pre-treated M. incognita or G. pallida J2s were added by pipette to the centre of the plate. J2s which moved out of the 'dead zone' after 3 hours were counted and their location (+/-) scored. The distribution of J2s were used to create a chemotaxis index for each plate, which formed one replicate, a total of 10 replicates where completed for each uNLP treatment.

The test system of experiment [2] is G. pallida J2s. The experiment is described as above. It counts as in vivo, Globodera pallida. Here is the method: as §1, §2
In experiment [3] the test system is M. incognita J2s. Nature of the experiment: Plant protection assay, C. reinhardtii secreting uNLPs. It counts as in vivo, Meloidogyne incognita. To be noted: Fig 4A; peptide secreted by transgenic C. reinhardtii culture in tomato invasion arena with 500 J2s; relative to untransformed C. reinhardtii = 100%; mean. The protocol: (§3) Tomato seeds were sterilised with 2.5% NaOCl for 15 minutes, washed 5 times in ddH20 and germinated on 0.5% Murashige and Skoog plates at 23°C. […] Invasion assays were performed by mixing 500 pre-treated M. incognita or G. pallida J2s with agar slurry and a single tomato seedling (2 days post germination) in a 6 well plate. Assays were left at 23°C for 24 hours in the case of M. incognita and at 18°C for 24 hours in the case of G. pallida under a 16 hour light and 8 hour darkness cycle. Seedlings were stained using acid fuschin [69] and the number of nematodes within the roots counted. At least five seedlings were used for M. incognita infections assays, with at least 15 seedlings used for G. pallida infections assays (due to increased variation).
(§4) B. subtilis were grown overnight in LB media containing ampicillin (100 μg/ml) at 37°C with shaking, and harvested in the log phase of growth determined by measuring OD600nm. Five ml of culture at 0.5 OD was spun down and the pellet mixed with 3 ml of agar slurry and 500 J2s from either G. pallida or M. incognita. C. reinhardtii clones were grown at 23°C with shaking, cultures in the log phase were measured at OD750 and 5 ml of culture at 0.5 OD was pelleted by centrifugation. C. reinhardtii pellets were mixed with 3 ml of agar slurry and 500 J2s from either G. pallida or M. incognita. Plant invasion assays were performed as described above. […]

The subject of experiment [4] is G. pallida J2s. The description is as above. To be noted: Fig 4C; peptide secreted by transgenic C. reinhardtii culture in tomato invasion arena with 500 J2s; control = 100%; mean. It counts as in vivo, Globodera pallida. Here is the method:
as §3, §4

The test system of another experiment is mixed-stage C. elegans. As to the kind of experiment: C. elegans chemotaxis assay (non-target). It counts as in vivo, Caenorhabditis elegans. To be noted: worms soaked in 100 μM uNLP 24 h, counted after 1 h, 8 replicates. The protocol: C. elegans wild-type N2 Bristol strain were obtained from the C. elegans Genomics Center and maintained on a Escherichia coli (strain OP50) lawn on nematode growth medium (NGM) agar plates (3 g/l NaCl, 17 g/l agar, 2.5 g/l peptone, 5 mg/l cholesterol, 25 mM KH2PO4 (pH 6.0), 1 mM CaCl2, 1 mM MgSO4) at 20°C [70]. Chemotaxis assays were performed in a 9 cm diameter Petri dish on NGM agar which was split into a positive and negative side with a central ‘dead zone’ of 1.5 cm diameter. 100 mixed-staged C. elegans were washed three times in M9 buffer and soaked in 100 μM PPN uNLP, or M9 vehicle control for 24 hours. 2 μl of 50 mM sodium acetate, 0.5% pyrazine, 0.5% benzaldehyde or 0.5% diacetyl was spotted onto the positive side, 2 μl of ddH20 was spotted onto the negative side. Pyrazine, benzaldehyde and diacetyl volatile attractants were assayed immediately whereas the water soluble sodium acetate was assayed 18 hours following addition to the plate. Assays were maintained in the dark at 20°C, and counted after 1 hour. Eight replicates were conducted for each C. elegans attraction assay.

Setting [5] is: 100 μM uNLP, 24 h, relative to controls.

Entries after “also recorded” stand apart in the source; their conditions may differ. Bounds are passed on as bounds.

As to “SFDSFTGPGFTGLD [Mi-NLP-15b, predicted unamidated NLP perfectly conserved between M. incognita and G. pallida; synthesised, also secreted from transgenic microbes]”, the “effect on chemosensation (in words)” value was “inhibit chemosensation; also recorded: inhibited” in the experiment on M. incognita J2s [1] (setting [5]) and “inhibits G. pallida chemotaxis” with G. pallida J2s [2] (setting [5]). The CI score with M. incognita J2s [1] (Fig 1A, J2s incubated in 100 μM uNLP for 24 h, tomato cv. Moneymaker root exudate vs water agar plugs, counted after 3 h, mean of 10 replicates of 100 J2s, control 0.4426) is recorded as -0.3408; with M. incognita J2s [1] (Fig 3A, 100 pM peptide, 24 h, control 0.4133, mean), 0.03117; in the experiment on M. incognita J2s [1] (Fig 3A, 1 nM peptide, 24 h, control 0.4133, mean) it was -0.07105; in the experiment on M. incognita J2s [1] (Fig 3A, 10 nM peptide, 24 h, control 0.4133, mean), -0.1741; in the experiment with M. incognita J2s [1] (Fig 3A, 100 nM peptide, 24 h, control 0.4133, mean), -0.1195; with M. incognita J2s [1] (Fig 3A, 1 µM peptide, 24 h, control 0.4133, mean), -0.1344. Also, the CI score in the experiment with M. incognita J2s [1] (Fig 3A, 10 µM peptide, 24 h, control 0.4133, mean) was -0.03579; in the experiment on M. incognita J2s [1] (Fig 3A, 100 µM peptide, 24 h, control 0.4133, mean) it was -0.3782; in the experiment on M. incognita J2s [1] (Fig 3A, concentration printed as 22:00:00, 24 h, control 0.4133, mean), -0.1553; in the experiment with G. pallida J2s [2] (Fig 2A, J2s incubated in 100 μM uNLP for 24 h, tomato cv. Moneymaker root exudate vs water agar plugs, counted after 3 h, mean of 10 replicates of 100 J2s, control 0.4154), -0.04762; in the experiment on mixed-stage C. elegans (Fig 5A, attractant sodium acetate (50 mM), control 0.4269) it was 0.3142; in the experiment on mixed-stage C. elegans (Fig 5B, attractant pyrazine (0.5%), control 0.4904), 0.4959. Further, the CI score with mixed-stage C. elegans (Fig 5C, attractant benzaldehyde (0.5%), control 0.7026) is reported as 0.7032; in the experiment on mixed-stage C. elegans (Fig 5D, attractant diacetyl (0.5%), control 0.6638), 0.664. Also, the “lowest concentration inhibiting chemosensation” value with M. incognita J2s [1] (serial dilution, 24 h exposure (Fig 3)) was at most 10 pM. Besides, the “% Invasion” value was 10.82% in the experiment on M. incognita J2s [3] and 30.95% with G. pallida J2s [4].
